Test system: HLA-DQ2
Experiment: Inhibition of IL-2 secretion by TCR transductants stimulated by α-gliadin peptides presented by HLA-DQ2 expressing K562 cells (ELISA)
Type: cell-based, human
Conditions: for DQ2 IL2 Maximal % Inhibition: IL-2 secretion, at the concentration given in brackets; for concentration at which the compound exhibited maximum % inhibition (DQ2 IL2): from dose-response curve, figure in brackets in the cell
Protocol: Three commercially available analogues of the DQ2 binding molecules of the invention were tested for their ability to inhibit stimulation of T cell receptor (TCR) transductants in the presence of HLA-DQ2 expressing cells presenting known α-gliadin epitopes.
Using a previously published in vitro assay (Ostrov D, et al. Methyldopa blocks MHC class II binding to disease specific antigens in autoimmune diabetes. J Clin Invest. 2018:128(5)) we measured the ability of these DQ2 binding analogues to inhibit interleukin-2 (IL-2) secretion by TCR transductants stimulated by α-gliadin peptides presented by HLA-DQ2. Individual TCR transductants (recognizing α I-gliadin or α II-gliadin) were cultured with a gliadin peptide plus the small molecule analogues in the presence of HLA-DQ2 expressing K562 cells serving as antigen presenting cells. TCR transductants cultured with no gliadin peptide served as the negative control, and incubation with an anti-CD3 antibody (eBioscience; clone 2C11) served as a positive control for the TCR transductant. Secreted IL-2 in the culture supernatant was measured using a highly sensitive enzyme-linked immunosorbent assay (ELISA). […] Assays for effects on cell viability and for specificity, assayed in the absence of gliadin peptide or in the presence of a stimulating anti-CD3 antibody, were performed. A=71-100%; B=41-70%; C=11-40%; D=0-10%, NT=Not tested.

[1] = TCR transductants (α I- or α II-gliadin) + gliadin peptide + HLA-DQ2 K562 cells
[2] = Table 2, TCR transductants + gliadin peptide + HLA-DQ2 K562 cells

Structure (SMILES) | DQ2 IL2 Maximal % Inhibition [1] | concentration at which the compound exhibited maximum % inhibition (DQ2 IL2) [µM] | DQ2 IL2 Maximal % Inhibition [2] | concentration at which the compound exhibited maximum % inhibition (DQ2 IL2) (Table 2) [µM]
Cn1nc2c(cc1=O)CC(NC(=O)c1ccc3ccccc3c1)CC2 (stereo not shown) [Compound 17] | A (A=71-100%) | 100 | – | –
CC(C)c1ccc(C(=O)NC2CCc3nn(C(C)C)c(=O)cc3C2)cc1 (stereo not shown) [Compound 44] | A (A=71-100%) | 200 | – | –
O=C(NC1CCc2n[nH]c(=O)cc2C1)C1CCCCC1 (stereo not shown) [Compound 12] | C (C=11-40%) | 0.1 | – | –
CCCCC(=O)NC1CCc2n[nH]c(=O)cc2C1 (stereo not shown) [Compound 9] | C (C=11-40%) | 100 | – | –
CCCCc1ccc(C(=O)NC2CCc3n[nH]c(=O)cc3C2)cc1 (stereo not shown) [Compound 5, 4-n-butyl-N-(3-oxo-5,6,7,8-tetrahydrocinnolin-6-yl)benzamide] | D (D=0-10%) | 50 | – | –
O=C(NC1CCc2n[nH]c(=O)cc2C1)C1CC1 (stereo not shown) [Compound 11] | D (D=0-10%) | 200 | – | –
CC(C)c1ccc(C(=O)NC2CCc3nn(C4CCOCC4)c(=O)cc3C2)cc1 (stereo not shown) [Compound 55] | A (A=71-100%) | 200 | – | –
CC(C)c1ccc(C(=O)NC2CCc3nn(CC(C)(C)O)c(=O)cc3C2)cc1 (stereo not shown) [Compound 58] | A (A=71-100%) | 200 | – | –
O=C(NC1CCc2n[nH]c(=O)cc2C1)c1ccc(F)cc1 (stereo not shown) [Compound 28] | C (C=11-40%) | 200 | – | –
O=C(NC1CCc2n[nH]c(=O)cc2C1)c1ccc(C2CCCCC2)cc1 (stereo not shown) [Compound 14] | B (B=41-70%) | 200 | – | –
Cn1nc2c(cc1=O)CC(NC(=O)c1cccc(C(F)(F)F)c1)CC2 (stereo not shown) [Compound 63] | – | – | A (A=71-100%) | 200
Cn1nc2c(cc1=O)CC(NC(=O)c1ccc(C(F)(F)F)cc1)CC2 (stereo not shown) [Compound 21] | A (A=71-100%) | 100 | – | –
CCCc1ccc(C(=O)NC2CCc3n[nH]c(=O)cc3C2)cc1 (stereo not shown) [Compound 3] | B (B=41-70%) | 100 | – | –
CCC(=O)NC1CCc2n[nH]c(=O)cc2C1 (stereo not shown) [Compound 7] | D (D=0-10%) | 200 | – | –
CCCC(=O)NC1CCc2nn(C)c(=O)cc2C1 (stereo not shown) [Compound 23] | C (C=11-40%) | 100 | – | –
Cc1ccc(C(=O)NC2CCc3nn(C)c(=O)cc3C2)cc1 (stereo not shown) [Compound 20] | B (B=41-70%) | 200 | – | –
O=C(NC1CCc2n[nH]c(=O)cc2C1)c1ccccc1 (stereo not shown) [Compound 1] | C (C=11-40%) | 50 | – | –
CNC(=O)Cn1nc2c(cc1=O)CC(NC(=O)c1ccc(C(C)C)cc1)CC2 (stereo not shown) [Compound 42] | A (A=71-100%) | 200 | – | –
CC(=O)NC1CCc2n[nH]c(=O)cc2C1 (stereo not shown) [Compound 6] | C (C=11-40%) | 50 | – | –
COCCn1nc2c(cc1=O)CC(NC(=O)c1ccc(C(C)C)cc1)CC2 (stereo not shown) [Compound 51] | B (B=41-70%) | 200 | – | –
CCn1nc2c(cc1=O)CC(NC(=O)c1ccc(C(C)C)cc1)CC2 (stereo not shown) [Compound 40] | B (B=41-70%) | 200 | – | –
Cn1nc2c(cc1=O)CC(NC(=O)c1ccc(Cl)cc1)CC2 (stereo not shown) [Compound 33] | B (B=41-70%) | 200 | – | –
CC(C)c1ccc(C(=O)NC2CCc3nn(Cc4ccccc4)c(=O)cc3C2)cc1 (stereo not shown) [Compound 50] | A (A=71-100%) | 200 | – | –
CCc1ccc(C(=O)NC2CCc3nn(CC(N)=O)c(=O)cc3C2)cc1 (stereo not shown) [Compound 38] | A (A=71-100%) | 200 | – | –

Structure (SMILES) | DQ2 IL2 Maximal % Inhibition [1] | concentration at which the compound exhibited maximum % inhibition (DQ2 IL2) [µM] | DQ2 IL2 Maximal % Inhibition [2] | concentration at which the compound exhibited maximum % inhibition (DQ2 IL2) (Table 2) [µM]
Cn1nc2c(cc1=O)CC(NC(=O)c1ccccc1)CC2 (stereo not shown) [Compound 16, N-(2-methyl-3-oxo-5,6,7,8-tetrahydrocinnolin-6-yl)benzamide] | B (B=41-70%) | 100 | – | –
CC(C)c1ccc(C(=O)NC2CCc3nn(CC4CCCCC4)c(=O)cc3C2)cc1 (stereo not shown) [Compound 49] | A (A=71-100%) | 200 | – | –
Cn1nc2c(cc1=O)CC(NC(=O)c1ccc(F)cc1)CC2 (stereo not shown) [Compound 32] | C (C=11-40%) | 200 | – | –
Cn1nc2c(cc1=O)CC(NC(=O)C1CCCCC1)CC2 (stereo not shown) [Compound 19] | B (B=41-70%) | 100 | – | –
Cn1nc2c(cc1=O)CC(NC(=O)C(C)(C)C)CC2 (stereo not shown) [Compound 24] | C (C=11-40%) | 100 | – | –
CCCn1nc2c(cc1=O)CC(NC(=O)c1ccc(CC)cc1)CC2 (stereo not shown) [Compound 37] | B (B=41-70%) | 200 | – | –
O=C(NC1CCc2n[nH]c(=O)cc2C1)c1ccc(Cl)cc1 (stereo not shown) [Compound 29] | B (B=41-70%) | 200 | – | –
Cn1nc2c(cc1=O)CC(NC(=O)C1CC1)CC2 (stereo not shown) [Compound 25] | C (C=11-40%) | 200 | – | –
O=C(NC1CCc2n[nH]c(=O)cc2C1)c1ccc(I)cc1 (stereo not shown) [Compound 31] | C (C=11-40%) | 200 | – | –
CC(C)Oc1ccc(C(=O)NC2CCc3nn(C)c(=O)cc3C2)cc1 (stereo not shown) [Compound 62] | – | – | A (A=71-100%) | 200
CC(C)C(=O)NC1CCc2n[nH]c(=O)cc2C1 (stereo not shown) [Compound 15] | C (C=11-40%) | 100 | – | –
CC(=O)NC1CCc2nn(C)c(=O)cc2C1 (stereo not shown) [Compound 18] | C (C=11-40%) | 100 | – | –
CCCC(=O)NC1CCc2n[nH]c(=O)cc2C1 (stereo not shown) [Compound 8] | D (D=0-10%) | 200 | – | –
Cc1ccc(C(=O)NC2CCc3n[nH]c(=O)cc3C2)cc1 (stereo not shown) [Compound 2] | C (C=11-40%) | 100 | – | –
CC(C)(C)c1ccc(C(=O)NC2CCc3n[nH]c(=O)cc3C2)cc1 (stereo not shown) [Compound 13] | D (D=0-10%) | 0.1 | – | –
CCc1ccc(C(=O)NC2CCc3n[nH]c(=O)cc3C2)cc1 (stereo not shown) [Compound 60] | – | – | A (A=71-100%) | 200
CC(C)c1ccc(C(=O)NC2CCc3nn(CC(F)(F)F)c(=O)cc3C2)cc1 (stereo not shown) [Compound 57, 4-isopropyl-N-(3-oxo-2-(2,2,2-trifluoroethyl)-2,3,5,6,7,8-hexahydrocinnolin-6-yl)benzamide] | A (A=71-100%) | 200 | – | –
CC(C)c1ccc(C(=O)NC2CCc3nn(C4CCC4)c(=O)cc3C2)cc1 (stereo not shown) [Compound 56] | A (A=71-100%) | 200 | – | –
CC(C)c1ccc(C(=O)NC2CCc3nn(CC4CC4)c(=O)cc3C2)cc1 (stereo not shown) [Compound 45] | A (A=71-100%) | 200 | – | –
CC(C)c1ccc(C(=O)NC2CCc3nn(C4CCCC4)c(=O)cc3C2)cc1 (stereo not shown) [Compound 59] | A (A=71-100%) | 200 | – | –
CC(C)c1ccc(C(=O)NC2CCc3nn(CC4CCC4)c(=O)cc3C2)cc1 (stereo not shown) [Compound 48] | A (A=71-100%) | 100 | – | –
CC(C)c1ccc(C(=O)NC2CCc3nn(CC(=O)O)c(=O)cc3C2)cc1 (stereo not shown) [Compound 43] | A (A=71-100%) | 200 | – | –
Cn1nc2c(cc1=O)CC(NC(=O)c1ccc(Br)cc1)CC2 (stereo not shown) [Compound 34] | A (A=71-100%) | 200 | – | –
